Reference: patent US8889591B2, “Herbicidal compositions comprising 4-amino-3-chloro-5-fluoro-6-(4-chloro-2-fluoro-3-methoxyphenyl)pyridine-2-carboxylic acid or a derivative thereof and bromobutide, daimuron, oxaziclomefone or pyributicarb” (Dow Agrosciences LLC, priority 2012, dated 2014)

Columns and labels:
CYPRO = assay: In-water applied greenhouse weed control, transplanted paddy rice system; assay type: in vivo, Cyperus rotundus L.; details: in-water application
Description: (§1) Weed seeds or nutlets of the desired test plant species were planted in puddled soil (mud) prepared by mixing a shredded, non-sterilized mineral soil (50.5 percent silt, 25.5 percent clay, and 24 percent sand, with a pH of about 7.6 and an organic matter content of about 2.9 percent) and water at a 1:1 volumetric ratio. The prepared mud was dispensed in 365 mL aliquots into 16-ounce (oz.) non-perforated plastic pots with a surface area of 86.59 square centimeters (cm^2) leaving a headspace of 3 centimeters (cm) in each pot. Mud was allowed to dry overnight prior to planting or transplanting. Rice seeds were planted in Sun Gro MetroMix® 306 planting mixture, which typically has a pH of 6.0 to 6.8 and an organic matter content of about 30 percent, in plastic plug trays. Seedlings at the second or third leaf stage of growth were transplanted into 840 mL of mud contained in 32-oz. non-perforated plastic pots with a surface area of 86.59 cm^2 4 days prior to herbicide application. The paddy was created by filling the headspace of the pots with 2.5 to 3 cm of water. When required to ensure good germination and healthy plants, a fungicide treatment and/or other chemical or physical treatment was applied. The plants were grown for 4-22 days in a greenhouse with an approximate 14 h photoperiod which was maintained at about 29° C. during the day and 26° C. during the night. Nutrients were added as Osmocote® (19:6:12, N:P:K+ minor nutrients) at 2 g per 16-oz. pot and 4 g per 32-oz. pot. Water was added on a regular basis to maintain the paddy flood, and supplemental lighting was provided with overhead metal halide 1000-Watt lamps as necessary. The plants were employed for testing when they reached the first through fourth true leaf stage.
(§2) Treatments consisted of the acid or esters of 4-amino-3-chloro-5-fluoro-6-(4-chloro-2-fluoro-3-methoxy-phenyl)pyridine-2-carboxylic acid (compound A) each formulated as an SC and various herbicidal components alone and in combination. Forms of compound A were applied on an acid equivalent basis.
(§3) Other herbicidal components were applied on an active ingredient basis and included daimuron formulated as an EC, bromobutide (technical grade material), and oxaziclomefone (technical grade material).
(§4) Treatment requirements for each compound or herbicidal component were calculated based upon the rates being tested, the concentration of active ingredient or acid equivalent in the formulation, an application volume of 2 mL per component per pot, and an application area of 86.59 cm^2 per pot.
(§5) For formulated compounds, a measured amount was placed in an individual 100 or 200 mL glass vial and was dissolved in a volume of 1.25% (v/v) Agri-Dex® crop oil concentrate to obtain application solutions.
(§6) For technical grade compounds, a weighed amount was placed in an individual 100 to 200 mL glass vial and was dissolved in a volume of acetone to obtain concentrated stock solutions. […] The concentrated stock solutions obtained were diluted with an equivalent volume of an aqueous mixture containing 2.5% (v/v) crop oil concentrate so that the final application solutions contained 1.25% (v/v) crop oil concentrate.
(§7) Applications were made by injecting, with a pipetter, appropriate amounts of the application solutions, individually and sequentially, into the aqueous layer of the paddy. Control plants were treated in the same manner with the solvent blank. Applications were made so that all treated plant material received the same concentrations of acetone and crop oil concentrate.
(§8) The treated plants and control plants were placed in a greenhouse as described above and water was added as needed to maintain a paddy flood. After approximately 3 weeks the condition of the test plants as compared with that of the untreated plants was determined visually and scored on a scale of 0 to 100 percent where 0 corresponds to no injury or growth inhibition and 100 corresponds to complete kill. […]

FIMMI = assay: as above; assay type: in vivo, Fimbristylis miliacea (L.) Vahl; details: in-water application
Description: as §1, §2, §3, §4, §5, §6, §7, §8

ECHOR = assay: as above; assay type: in vivo, Echinochloa oryzoides (Ard.) Fritsch; details: in-water application
Description: as §1, §2, §3, §4, §5, §6, §7, §8

BRAPP = assay: Postemergence foliar-applied greenhouse weed control, direct-seeded rice system; assay type: in vivo; details: Compound A Acid 4.38 gae/ha alone
Text: (§9) Seeds or nutlets of the desired test plant species were planted in a soil matrix prepared by mixing a loam or sandy loam soil (e.g., 28.6 percent silt, 18.8 percent clay, and 52.6 percent sand, with a pH of about 5.8 and an organic matter content of about 1.8 percent) and calcareous grit in an 80 to 20 ratio. The soil matrix was contained in plastic pots with a volume of 1 quart and a surface area of 83.6 square centimeters (cm^2). When required to ensure good germination and healthy plants, a fungicide treatment and/or other chemical or physical treatment was applied. The plants were grown for 8-22 days in a greenhouse with an approximate 14 h photoperiod which was maintained at about 29° C. during the day and 26° C. during the night. Nutrients (Peters Excel® 15-5-15 5-Ca 2-Mg and iron chelate) were applied in the irrigation solution as needed and water was added on a regular basis. Supplemental lighting was provided with overhead metal halide 1000-Watt lamps as necessary. The plants were employed for testing when they reached the first through fourth true leaf stage.
(§10) Treatments consisted of the acid or esters of 4-amino-3-chloro-5-fluoro-6-(4-chloro-2-fluoro-3-methoxy-phenyl)pyridine-2-carboxylic acid (Compound A), each formulated as an SC (suspension concentrate), and various herbicidal components alone and in combination. Forms of compound A were applied on an acid equivalent basis.
(§11) Other herbicidal components were applied on an active ingredient basis and included diamuron formulated as an EC (emulsifiable concentrate) and oxaziclomefone (technical grade material).
(§12) Treatment requirements were calculated based upon the rates being tested, the concentration of active ingredient or acid equivalent in the formulation, and a 12 mL application volume at a rate of 187 L/ha.
(§13) For treatments comprised of formulated compounds, measured amounts of compounds were placed individually in 25 mL glass vials and diluted in a volume of 1.25% (v/v) Agri-Dex® crop oil concentrated to obtain 12× stock solutions. […] Application solutions were prepared by adding an appropriate amount of each stock solution (e.g., 1 mL) and diluted to the appropriate final concentrations with the addition of 10 mL of an aqueous mixture of 1.25% (v/v) crop oil concentrate so that the final spray solutions contained 1.25+/−0.05% (v/v) crop oil concentrate.
(§14) For treatments comprised of technical compounds, weighed amounts can be placed individually in 25 mL glass vials and dissolved in a volume of 97:3 v/v acetone/DMSO to obtain 12× stock solutions. […] Application solutions can be prepared by adding an appropriate amount of each stock solution (e.g., 1 mL) and diluted to the appropriate final concentrations with the addition of 10 mL of an aqueous mixture of 1.5% (v/v) crop oil concentrate so that the final spray solutions contain 1.25% (v/v) crop oil concentrate. When technical materials are used, the concentrated stock solutions can be added to the spray solutions so that the final acetone and DMSO concentrations of the application solutions are 16.2% and 0.5%, respectively.
(§15) For treatments comprised of formulated and technical compounds, weighed amounts of the technical materials were placed individually in 25 mL glass vials and dissolved in a volume of 97:3 v/v acetone/DMSO to obtain 12× stock solutions, and measured amounts of the formulated compounds were placed individually in 25 mL glass vials and diluted in a volume of 1.5% (v/v) crop oil concentrate or water to obtain 12× stock solutions. […] Application solutions were prepared by adding an appropriate amount of each stock solution (e.g., 1 mL) and diluted to the appropriate final concentrations with the addition of an appropriate amount of an aqueous mixture of 1.5% (v/v) crop oil concentrate so that the final spray solutions contained 1.25% (v/v) crop oil concentrate. […]

LEFCH = assay: as above; assay type: in vivo, Leptochloa chinensis (L.) Nees
Text: as §9, §10, §11, §12, §13, §14, §15

ECHCG = assay: as above; assay type: in vivo, Echinochloa crusgalli (L.) Beauv.
Text: as §9, §10, §11, §12, §13, §14, §15

ECHCO = assay: as above; assay type: in vivo, Echinochloa colona (L.) Link
Text: as §9, §10, §11, §12, §13, §14, §15

IPOHE = assay: as above; assay type: in vivo, Ipomoea hederacea Jacq.
Text: as §9, §10, §11, §12, §13, §14, §15

[1] = Compound A Acid 8.75 gae/ha alone
[2] = Compound A Acid 17.5 gae/ha alone
[3] = Compound A Acid 35 gae/ha alone
[4] = Compound A Acid 4.38 gae/ha alone

Row | SMILES | Visual Weed Control (%) - 19 DAA CYPRO Obs (CYPRO; Bromobutide 225 gai/ha alone) | Visual Weed Control (%) - 19 DAA CYPRO Obs (CYPRO; Bromobutide 450 gai/ha alone) | Visual Weed Control (%) - 19 DAA FIMMI Obs (FIMMI; Bromobutide 225 gai/ha alone) | Visual Weed Control (%) - 19 DAA FIMMI Obs (FIMMI; Bromobutide 450 gai/ha alone) | Visual Weed Control (%) - 20 DAA ECHOR Obs (ECHOR; [1]) | Visual Weed Control (%) - 20 DAA ECHOR Obs (ECHOR; [2]) | Visual Weed Control (%) - 20 DAA ECHOR Obs (ECHOR; [3]) | Visual Weed Control (%) - 21 DAA CYPRO Obs (CYPRO; [2]) | Visual Weed Control (%) - 21 DAA CYPRO Obs (CYPRO; [3]) | Visual Weed Control (%) - 20 DAA BRAPP Obs (BRAPP) | Visual Weed Control (%) - 20 DAA LEFCH Obs (LEFCH; [4]) | Visual Weed Control (%) - 20 DAA LEFCH Obs (LEFCH; [1]) | Visual Weed Control (%) - 20 DAA LEFCH Obs (LEFCH; [2]) | Visual Weed Control (%) - 20 DAA ECHCG Obs (ECHCG; [4]) | Visual Weed Control (%) - 20 DAA ECHCG Obs (ECHCG; [1]) | Visual Weed Control (%) - 20 DAA ECHCO Obs (ECHCO; [4]) | Visual Weed Control (%) - 20 DAA ECHCO Obs (ECHCO; [1]) | Visual Weed Control (%) - 20 DAA ECHCO Obs (ECHCO; [2]) | Visual Weed Control (%) - 20 DAA IPOHE Obs (IPOHE; [4]) | Visual Weed Control (%) - 20 DAA IPOHE Obs (IPOHE; [1])
1 | CC(C)(NC(=O)C(Br)C(C)(C)C)c1ccccc1 (centres unmarked) [Bromobutide, 2-bromo-3,3-dimethyl-N-(1-methyl-1-phenylethyl)butanamide] | 0% | 0% | 0% | 15% |  |  |  |  |  |  |  |  |  |  |  |  |  |  |  | 
2 | COc1c(Cl)ccc(-c2nc(C(=O)O)c(Cl)c(N)c2F)c1F [Compound A Acid, 4-amino-3-chloro-6-(4-chloro-2-fluoro-3-methoxyphenyl)-5-fluoropyridine-2-carboxylic acid] |  |  |  |  | 20% | 30% | 40% | 40% | 70% | 10% | 0% | 20% | 50% | 25% | 80% | 50% | 75% | 90% | 10% | 35%
